US9862676B2, “Hydroxamic acid derivative or salt thereof” (TOYAMA CHEMICAL CO., LTD., priority 2013, dated 2018)
Converted amounts (≈) assume the structure as drawn.

Columns and labels:
[1] = molecular target: T1, Pseudomonas aeruginosa LpxC enzyme (Pseudomonas aeruginosa, UniProt P47205); assay: Test to evaluate Pseudomonas aeruginosa LpxC enzyme inhibitory activity; assay type: biochemical
T1 construct: made in house; host or cells: Escherichia coli
T1 sequence (P47205 1-303): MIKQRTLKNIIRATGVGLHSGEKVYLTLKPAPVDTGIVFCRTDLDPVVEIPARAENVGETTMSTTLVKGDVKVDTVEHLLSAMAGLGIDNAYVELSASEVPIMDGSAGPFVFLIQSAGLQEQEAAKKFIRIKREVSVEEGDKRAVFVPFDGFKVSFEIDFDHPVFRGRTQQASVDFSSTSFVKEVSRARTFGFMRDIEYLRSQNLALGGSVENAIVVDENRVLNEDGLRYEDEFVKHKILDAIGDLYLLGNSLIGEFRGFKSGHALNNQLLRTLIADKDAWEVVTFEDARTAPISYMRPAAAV
Experimental: The Pseudomonas aeruginosa LpxC enzyme activity was measured by reacting LpxC with its substrate UDP-3-O—(R-3-hydroxydecanoyl)-N-acetylglucosamine and measuring the amount of the reaction product by the quantification of an amino group present in the product. This measurement was carried out according to a method described in, for example, International Publication No. WO 11/132712 pamphlet or a method similar thereto.
Specifically, to the Pseudomonas aeruginosa LpxC enzyme (which was obtained by preparing chromosomal DNA from Pseudomonas aeruginosa, obtaining the Pseudomonas aeruginosa LpxC gene by PCR (polymerase chain reaction) using LpxC-specific primers, and incorporating this gene into a vector, followed by gene expression using Escherichia coli), 20 μmol/L UDP-3-O—(R-3-hydroxydecanoyl)-N-acetylglucosamine (Wako Pure Chemical Industries, Ltd.) was added, and the mixture was incubated at 25° C. for 1 hour. This reaction was carried out in a 40 mmol/L HEPES buffer solution (pH 8.0) containing 0.02% Brij 35 and 80 μmol/L dithiothreitol. The reaction was terminated by the addition of 20% acetic acid (final concentration: 0.95%) to the reaction solution. Then, fluorescamine (final concentration: 1.6 mg/mL) dissolved in anhydrous dioxane was added thereto. The amount of the reaction product was detected at an excitation wavelength/fluorescence wavelength=390 nm/495 nm. Each test compound was allowed to coexist at various concentrations in the reaction to obtain an inhibition curve.

[2] = test system: Escherichia coli ATCC25922 strain; assay: Antibacterial activity, MIC by broth microdilution (CLSI); assay type: cell-based
Experimental: (§1) The minimum inhibitory concentration (MIC) was measured according to the CLSI (Clinical and Laboratory Standards Institute) standard method using a broth microdilution method given below. The bacteria used were a Pseudomonas aeruginosa ATCC27853 strain, an Escherichia coli ATCC25922 strain and a Klebsiella pneumoniae ATCC13883 strain. Test bacterial cells of each strain cultured overnight in a Mueller-Hinton agar medium were scraped off and suspended at the McFarland 0.5 standard, and this suspension was diluted 10-fold to prepare an inoculum solution. The inoculum solution (0.005 mL) was inoculated to a cation-adjusted Mueller-Hinton medium containing each test compound and cultured at 35° C. for 16 to 20 hours. The minimum drug concentration at which bacterial growth was not visible to the naked eye was defined as MIC.

[3] = test system: Klebsiella pneumoniae ATCC13883 strain; assay: as above; assay type: cell-based
Experimental: as §1

[4] = test system: Pseudomonas aeruginosa ATCC27853 strain; assay: as above; assay type: cell-based
Experimental: as §1

[5] = Test on inhibition of Vero cell growth (XTT); assay type: cell-based; conditions: African green monkey, Vero cells, 3 days culture, read-out: CC50 (concentration inhibiting 50% of cell growth)
Experimental: Each test compound was dissolved in dimethyl sulfoxide, adjusted to each concentration using E'MEM, and then dispensed at 0.1 mL/well to 96-well microplates. The Vero cell suspension was prepared at 3×10^4 cells/mL using E'MEM supplemented with 20% FBS, inoculated thereto at 0.1 mL/well, and cultured at 37° C. for 3 days under 5% CO2. At the completion of the culture, PBS supplemented with 1 mg/mL 2,3-bis-(2-methoxy-4-nitro-5-sulfophenyl)-5-((phenylamino)carbonyl)-2H-tetrazolium inner salt monosodium salt (XTT) and 25 μM phenazine methosulfate (PMS) was prepared and added thereto at 50 μL/well. Approximately 2 hours later, the absorbance at 450 nm was measured using a microplate reader.

[6] = test system: multidrug-resistant Pseudomonas aeruginosa clinical isolate (S-2838 strain); assay: Defense against mouse systemic infection using multidrug-resistant Pseudomonas aeruginosa; assay type: in vivo; conditions: male ICR mice, S-2838 strain i.p., single intravenous dose 50 mg/kg 1 hour after infection
Experimental: The mice used were male ICR SPF mice (4 weeks old: 5 individuals per group). To prepare a bacterial inoculum solution, a multidrug-resistant Pseudomonas aeruginosa clinical isolate (S-2838 strain) cultured overnight at 37° C. on a Mueller-Hinton agar plate was cultured for 5 hours in a cation-adjusted Mueller-Hinton medium and then diluted 10-fold with a 10% mucin/phosphate buffer solution to prepare the inoculum solution. Infection was induced by the intraperitoneal inoculation of 0.5 mL of the inoculum solution (approximately 10^6 CFU/mouse) to each mouse. Each test compound was dissolved in a 10% hydroxypropylated β-cyclodextrin/2.5% mannitol aqueous solution and intravenously administered to the tail a single dose of 50 mg/kg at 1 hour after the infection. Three days after the infection, the number of survivors was recorded.

[7] = molecular target: T2, hERG current (Homo sapiens, UniProt Q12809); assay: Evaluation of hERG inhibitory activity (whole cell clamp, HEK 293 cells); assay type: cell-based; conditions: up to 300 μmol/L; HEK 293 cells transfected with hERG gene, tail current 10 minutes after application
T2 construct: host or cells: HEK 293 cells
T2 sequence (Q12809 whole entry): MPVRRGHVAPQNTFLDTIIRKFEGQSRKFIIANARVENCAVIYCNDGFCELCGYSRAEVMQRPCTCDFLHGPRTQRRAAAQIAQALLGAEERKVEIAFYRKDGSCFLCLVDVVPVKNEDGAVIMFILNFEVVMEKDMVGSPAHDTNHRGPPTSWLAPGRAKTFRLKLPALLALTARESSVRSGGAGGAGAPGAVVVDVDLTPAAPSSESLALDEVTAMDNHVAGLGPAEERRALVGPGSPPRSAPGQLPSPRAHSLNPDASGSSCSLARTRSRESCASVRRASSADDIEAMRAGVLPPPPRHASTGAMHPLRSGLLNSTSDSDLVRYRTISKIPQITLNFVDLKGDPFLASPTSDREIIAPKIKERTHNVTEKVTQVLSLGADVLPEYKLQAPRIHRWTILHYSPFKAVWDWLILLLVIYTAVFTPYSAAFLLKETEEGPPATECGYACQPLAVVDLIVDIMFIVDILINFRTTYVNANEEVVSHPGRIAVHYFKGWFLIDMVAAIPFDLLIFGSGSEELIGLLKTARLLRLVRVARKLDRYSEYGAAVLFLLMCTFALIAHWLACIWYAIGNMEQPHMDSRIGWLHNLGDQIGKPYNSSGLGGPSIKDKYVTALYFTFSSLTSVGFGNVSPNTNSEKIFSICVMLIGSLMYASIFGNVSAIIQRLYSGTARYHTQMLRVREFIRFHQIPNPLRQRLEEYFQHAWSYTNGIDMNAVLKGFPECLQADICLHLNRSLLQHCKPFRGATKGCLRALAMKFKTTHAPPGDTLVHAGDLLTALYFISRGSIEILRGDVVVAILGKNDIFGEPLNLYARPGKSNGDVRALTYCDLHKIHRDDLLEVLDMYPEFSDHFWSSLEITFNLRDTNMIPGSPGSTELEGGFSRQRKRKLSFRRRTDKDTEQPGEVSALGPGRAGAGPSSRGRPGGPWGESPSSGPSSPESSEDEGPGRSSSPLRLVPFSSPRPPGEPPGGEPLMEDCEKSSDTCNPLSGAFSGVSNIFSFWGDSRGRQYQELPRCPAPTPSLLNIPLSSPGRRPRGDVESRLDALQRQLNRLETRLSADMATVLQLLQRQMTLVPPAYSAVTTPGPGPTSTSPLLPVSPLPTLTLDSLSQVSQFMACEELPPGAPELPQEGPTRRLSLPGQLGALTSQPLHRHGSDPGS
Experimental: HEK 293 cells (human embryo kidney 293 cells, Cytomyx LLC) transfected with hERG gene (human ether-a-go-go related gene) were used. The culture solution used was a MEM medium containing 10% fetal bovine serum and 1% nonessential amino acid and further supplemented with Geneticin at a concentration of 400 μg/mL. The cells were cultured in a carbonic acid gas incubator (37.0° C., 5% CO2).
The hERG current was measured by a whole cell clamp method. A glass cover with the cells for measurement attached thereto was placed in a dish and perfused at a rate of 2 mL/min with a perfusate (composition: 137 mmol/L NaCl, 4 mmol/L KCl, 10 mmol/L HEPES, 1.8 mmol/L CaCl2, 1 mmol/L MgCl2, 10 mmol/L glucose, pH 7.4). The inside temperature of the perfusion chamber was kept at 25° C. […]
Before the application and 10 minutes after the application, the peak value of tail current in the hERG current waveform was analyzed to calculate the ratio of the value 10 minutes after the application to the value before the application (relative value, %).

IC50 [1] [nM]	MIC [2] [µg/mL]	MIC [3] [µg/mL]	MIC [4] [µg/mL]	Structure (SMILES)	CC50 at 3 days [5] [µg/mL]	mice surviving 3 days after the bacterial inoculation [6] [%]	hERG inhibitory activity [7]
< 50	0.25 (≈ 0.551 µM)	1 (≈ 2.21 µM)	1 (≈ 2.21 µM)	CNC(=O)[C@@](C)(C(=O)NO)N(C)C(=O)c1ccc(C#Cc2ccc(COCCO)cc2)cc1 [Example 1, (2S)—N-hydroxy-2-((4-((4-((2-hydroxyethoxy)methyl)phenyl)ethynyl)benzoyl)(methyl)amino)-N′,2-dimethyl-malonamide]	≥ 100		
< 50	0.25 (≈ 0.59 µM)	1 (≈ 2.36 µM)	1 (≈ 2.36 µM)	CNC(=O)[C@@](C)(C(=O)NO)N(C)C(=O)c1ccc(C#Cc2ccc(C(C)O)cc2)cc1 (stereo partly drawn) [Example 16, (2S)—N-hydroxy-2-((4-((4-(1-hydroxyethyl)phenyl)ethynyl)benzoyl)(methyl)amino)-N′,2-dimethyl-malonamide]			
< 50			1 (≈ 2.21 µM)	CNC(=O)[C@@](C)(C(=O)NO)N(C)C(=O)c1ccc(C#Cc2ccc(C(O)CCO)cc2)cc1 (stereo partly drawn) [Example 17, (2S)-2-((4-((4-(1,3-dihydroxypropyl)phenyl)ethynyl)benzoyl)(methyl)amino)-N-hydroxy-N′,2-dimethylmalonamide]	≥ 100		
< 50	0.5 (≈ 1.03 µM)		1 (≈ 2.07 µM)	CNC(=O)[C@@](C)(C(=O)NO)N(C)C(=O)c1ccc(C#Cc2ccc([C@H](O)COCCO)cc2)cc1 [Example 24, (2S)—N-hydroxy-2-((4-((4-((1S)-1-hydroxy-2-(2-hydroxyethoxy)ethyl)phenyl)ethynyl)benzoyl)(methyl)amino)-N′,2-dimethyl-malonamide]	≥ 100		
< 50	0.5 (≈ 1.1 µM)		0.5 (≈ 1.1 µM)	CNC(=O)[C@@](C)(C(=O)NO)N(C)C(=O)c1ccc(C#Cc2ccc([C@H](O)CCO)cc2)cc1 [Example 25, (2S)-2-((4-((4-((1R)-1,3-dihydroxypropyl)phenyl)ethynyl)benzoyl)(methyl)amino)-N-hydroxy-N′,2-dimethyl-malonamide]	≥ 100		
< 50	0.5 (≈ 1.1 µM)		1 (≈ 2.21 µM)	CNC(=O)[C@@](C)(C(=O)NO)N(C)C(=O)c1ccc(C#Cc2ccc([C@H](O)[C@H](C)O)cc2)cc1 [Example 33, (2S)-2-((4-((4-((1S,2S)-1,2-dihydroxypropyl)phenyl)ethynyl)benzoyl)(methyl)amino)-N-hydroxy-N′,2-dimethylmalonamide]	≥ 100		
< 50		1 (≈ 2.14 µM)	1 (≈ 2.14 µM)	CNC(=O)[C@@](C)(C(=O)NO)N(C)C(=O)c1ccc(C#Cc2ccc(C(O)CCCO)cc2)cc1 (stereo partly drawn) [Example 35, (2S)-2-((4-((4-(1,4-dihydroxybutyl)phenyl)ethynyl)benzoyl)(methyl)amino)-N-hydroxy-N′,2-dimethyl-malonamide]	≥ 100		
< 50	0.25 (≈ 0.535 µM)	1 (≈ 2.14 µM)	0.5 (≈ 1.07 µM)	CNC(=O)[C@@](C)(C(=O)NO)N(C)C(=O)c1ccc(C#Cc2ccc([C@H](O)CCOC)cc2)cc1 [Example 36, (2S)—N-hydroxy-2-((4-((4-((1R)-1-hydroxy-3-methoxypropyl)phenyl)ethynyl)benzoyl)(methyl)amino)-N′,2-dimethylmalonamide]	≥ 100		
< 50	0.5 (≈ 1.07 µM)	1 (≈ 2.15 µM)	1 (≈ 2.15 µM)	CNC(=O)[C@@](C)(C(=O)NO)N(C)C(=O)c1ccc(C#Cc2ccc([C@H](O)/C=C/CO)cc2)cc1 [Example 40, (2S)-2-((4-((4-((1R,2E)-1,4-dihydroxybut-2-ene-1-yl)phenyl)ethynyl)benzoyl)(methyl)amino)-N-hydroxy-N′,2-dimethyl-malonamide]			

Structure (SMILES)	IC50 [1] [nM]	MIC [2] [µg/mL]	MIC [3] [µg/mL]	MIC [4] [µg/mL]	CC50 at 3 days [5] [µg/mL]	mice surviving 3 days after the bacterial inoculation [6] [%]	hERG inhibitory activity [7]
CNC(=O)[C@@](C)(C(=O)NO)N(C)C(=O)c1ccc(C#Cc2ccc(C(O)CO)cc2)cc1 (stereo partly drawn) [Example 3, (2S)-2-((4-((4-(1,2-dihydroxyethyl)phenyl)ethynyl)benzoyl)(methyl)amino)-N-hydroxy-N′,2-dimethyl-malonamide]	< 50			1 (≈ 2.28 µM)	≥ 100		
CNC(=O)[C@@](C)(C(=O)NO)N(C)C(=O)c1ccc(C#Cc2ccc([C@@H](O)CO)cc2)cc1 [Example 19, (2S)-2-((4-((4-((1R)-1,2-dihydroxyethyl)phenyl)ethynyl)benzoyl)(methyl)amino)-N-hydroxy-N′,2-dimethyl-malonamide]	< 50			1 (≈ 2.28 µM)	≥ 100	100	
CNC(=O)[C@@](C)(C(=O)NO)N(C)C(=O)c1ccc(C#Cc2ccc([C@H](O)COC)cc2)cc1 [Example 23, (2S)—N-hydroxy-2-((4-((4-((1S)-1-hydroxy-2-methoxyethyl)phenyl)ethynyl)benzoyl)(methyl)amino)-N′,2-dimethyl-malonamide]	< 50	0.25 (≈ 0.551 µM)	1 (≈ 2.21 µM)	1 (≈ 2.21 µM)	≥ 100	100	did not exhibit hERG inhibitory activity
CNC(=O)[C@@](C)(C(=O)NO)N(C)C(=O)c1ccc(C#Cc2ccc([C@H](O)CCCO)cc2)cc1 [Example 39, (2S)-2-((4-((4-((1R)-1,4-dihydroxybutyl)phenyl)ethynyl)benzoyl)(methyl)amino)-N-hydroxy-N′,2-dimethyl-malonamide]	< 50	0.5 (≈ 1.07 µM)	1 (≈ 2.14 µM)	1 (≈ 2.14 µM)		100	
